In US20260345584A1, “METHODS AND PHARMACEUTICAL COMPOSITIONS FOR TREATING CHEMOTHERAPY-INDUCED PERIPHERAL NEUROPATHY WITH EG5 INHIBITORS” (UNIVERSITY OF MIAMI, priority 2023, published 2026):

What was measured:
Type in all cases: in vivo
[1] = test system: microtubule detyrosination in keratinocytes; experiment: GluTub immunofluorescence of detyrosinated microtubules in zebrafish caudal fin keratinocytes
Description: (§1) The stock solution was divided into 20-30 μl aliquots and stored at −20 °C until use (maximal 6 months). Immediately prior to use, paclitaxel was diluted in Ringer's solution and added to dechorionated larval zebrafish. The larval fish were placed individually or in small groups into wells of a 12-well plate containing the treatment solutions. The control group was 0.05% DMSO. Plates were incubated at 28.5 °C and protected from light. Treatment lengths are indicated in the Drawings, Description of the Drawings, and Examples where appropriate. […] EMD534085, Eg5 inhibitor (MedChemExpress, Cat. No. HY-15000) was diluted in 100% DMSO to make a 10 mM stock solution and stored at −20 °C. […] The solutions were exchanged every 48 hr.
Larval fish were transferred into […] glass vials and fixed in 4% paraformaldehyde (PFA)/1× Phosphate-buffered saline (PBS) for 1.5 hr at room temperature, with gentle rocking. Following a 5-minute incubation in 1×PBS+0.1% Tween-20 (PBST), zebrafish were permeabilized in 1×PBS+0.1% Triton X-100 for 10-30 min. Larval fish were transferred into 2 ml reaction tubes and incubated in blocking buffer (1×PBST+5% BSA) for 30 min at room temperature, with rocking. Larval fish were further incubated overnight in antibody solution (Millipore Sigma, Cat. No. AB3201, 1:300 rabbit anti-GluTub; Sigma, Cat No. T6793, 1:500 mouse anti-acetylated tubulin) in blocking buffer at 4 °C, on a rotator. The next morning, larval fish were transferred into 6-well plates and washed 4×15 min in 1×PBST at room temperature, with rocking. This was followed by incubation in secondary antibody (goat anti-rabbit Cy5, Abcam, Cat. No. ab97077; goat anti-mouse Cy3, Abcam, Cat. No. ab97035) and 1:10,000 Hoechst 33342 (ThermoFisher Scientific, Cat. No. 62249, 20 mM solution) in blocking buffer for 1 hr at room temperature, with rocking. Fish were covered to avoid bleaching. […]
Fluorescence intensities were measured using the Imaris MATLAB plugin or Fiji. A line was typically placed over the region of interest and the fluorescence automatically quantified. The values were normalized to nuclear (Hoechst33342) fluorescence intensities within the same fish and region to obtain an intensity ratio.
Stabilized microtubules undergo a modification whereby the terminal tyrosine residue was removed, leading to detyrosination (dMT) (Roll-Mecak et al., 2020, Developmental cell 54: 7-20), which was associated with particularly long-term stabilized microtubule populations (Khawaja et al., 1988, The Journal of cell biology 106: 141-149). Exposure of the penultimate glutamate residue can be detected using a GluTub antibody. […]

suprabasal keratinocytes = experiment: dfMT formation in mouse epidermis; details: single injection 20 mg/kg
Description: (§2) The mice in each cage were randomly allocated to different treatment groups. Food and water were available ad libitum and experiments were performed during the light cycle (7:00 am to 7:00 pm). Animals were euthanized via CO2 asphyxiation, followed by cervical dislocation. […] The animal's husbandry conformed with established NIH and Institutional Animal Care and Use Committee (IACUC) approved protocols.
(§3) Paws and back skin were collected at predetermined time points, placed in 10% formalin, and stored overnight at 4 °C. Samples were embedded in paraffin and sectioned at 7 μm, deparaffinized, washed with PBS, and incubated at room temperature for 5 min in 0.1% Triton X-100 in PBS and then blocked for 30 min (5% BSA). Sections were incubated with primary antibody diluted in blocking solution, overnight at 4 °C in a humidity chamber. Following PBS washes, sections were incubated for 1 h at room temperature with a secondary antibody. Tissues were mounted and assessed for staining. Antibodies used were against detyrosinated tubulin Millipore AB3201, p-KIF11 Invitrogen PA5-38647, alpha-tubulin Proteintech 66031-1-Ig, mouse Alexa Fluor 488 Invitrogen A21202, and rabbit Alexa flour 546 Invitrogen A10040. DAPI was used for nuclei counterstaining. […]

Eg5 [2] = experiment: Eg5 immunofluorescence in zebrafish caudal fin; details: 22 μM paclitaxel, 96 hr
Description: as §1
Larval fish were transferred into […] glass vials and fixed in 4% paraformaldehyde (PFA)/1× Phosphate-buffered saline (PBS) for 1.5 hr at room temperature, with gentle rocking. Following a 5-minute incubation in 1×PBS+0.1% Tween-20 (PBST), zebrafish were permeabilized in 1×PBS+0.1% Triton X-100 for 10-30 min. Larval fish were transferred into 2 ml reaction tubes and incubated in blocking buffer (1×PBST+5% BSA) for 30 min at room temperature, with rocking. […]

Eg5 [3] = experiment: Eg5 / phospho-Eg5 staining in mouse skin; details: single injection, 20 mg/kg; basal and suprabasal keratinocytes
Description: as §2, §3

| Compound | microtubule detyrosination with Eg5 inhibition ([1]; EMD534085-treated animals, 96 hr) | effect on microtubule fasciculation and detyrosination ([1]; EMD534085 co-administered with 100 nM and 22 μM paclitaxel) | dfMT formation in mouse epidermis (suprabasal keratinocytes) | Eg5 localization/induction (Eg5 [2]) | total and phospho-Eg5 levels (Eg5 [3]) |
| --- | --- | --- | --- | --- | --- |
| CN(C)CCNC(=O)NC[C@H]1CC[C@@H]2[C@H](O1)c1cc(C(F)(F)F)ccc1N[C@H]2c1ccccc1 [EMD534085] | not modified when animals were treated with EMD534085 | rescued microtubule fasciculation but not detyrosination |  |  |  |
| CC(=O)O[C@H]1C(=O)[C@@]2(C)[C@H]([C@H](OC(=O)c3ccccc3)[C@]3(O)C[C@H](OC(=O)[C@H](O)[C@@H](NC(=O)c4ccccc4)c4ccccc4)C(C)=C1C3(C)C)[C@]1(OC(C)=O)CO[C@@H]1C[C@@H]2O [paclitaxel] |  |  | resulted in dfMT formation in a subset of suprabasal keratinocytes | promoted Eg5 puncta formation | increased total and phospho-Eg5 levels |
